# Source: US9120749B2, “Quinoline derivatives and MELK inhibitors containing the same” (ONCOTHERAPY SCIENCE, INC., priority 2010, dated 2015)
# Counter-ions that a name gives are not always drawn. Like-named read-outs stand apart in the source and are kept apart here.
# Tests used:
# DU4475 cells [1] = test: Cell-based assay: anti-proliferative activity, Cell Counting Kit-8, 72 hours (DU4475)
# HT-1197 cells = test: Cell-based assay: anti-proliferative activity, Cell Counting Kit-8, 72 hours (HT-1197, negative control without MELK expression); conditions: 72 hours
# Outline: (§1)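 T47D, A549 and BT-549 cells, with MELK-negative HT-1197 as control (MELK status checked by western blot), seeded at 2,000–3,000 cells/well. Growth measured by CCK-8 72 hours after inhibitor exposure; IC50 values calculated.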
# A549 cells = test: Cell-based assay: anti-proliferative activity, Cell Counting Kit-8, 72 hours (A549); conditions: 72 hours
# Outline: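 Cell Counting Kit-8 read-out of A549 growth after 72 hours of inhibitor exposure, cells plated in 96-well format. Values reported as IC50.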
# T47D cells = test: Cell-based assay: anti-proliferative activity, Cell Counting Kit-8, 72 hours (T47D)
# Outline: as §1
# 22Rv1 cells [2] = test: Cell-based assay: anti-proliferative activity, Cell Counting Kit-8, 72 hours (22Rv1); conditions: Homo sapiens
# DU4475 = test: Cell-based assay: anti-proliferative activity, Cell Counting Kit-8, 72 hours (DU4475)
# 22Rv1 = test: Cell-based assay: anti-proliferative activity, Cell Counting Kit-8, 72 hours (22Rv1); conditions: Homo sapiens; 22Rv1 cells
# Protocol: Active candidate inhibitors against MELK were evaluated for their target-specific cytotoxicity using T47D, A549, BT-549, and HT-1197 cells was used for negative control. 100 micro-L of cell suspension was seeded onto 96-well microtiter plate (ViewPlate-96FTC, PerkinElmer). The initial cell concentration of T47D, A549, BT-549, and HT-1197 were 3,000 cells/well, 2,000 cells/well and 2,500 cells/well, respectively. Cellular growth was determined using Cell Counting Kit-8 (DOJINDO) at 72 hours after the exposure of the candidate inhibitors. […] Accurate IC50 values were calculated as described previously.
# MELK = MELK (Homo sapiens, UniProt Q14680); test: Kinase assay: MELK activity, phosphorylation of FITC-labeled histone H3 peptide measured by IMAP fluorescence polarization; format: biochemical; conditions: read-out: IC50 (μM) (kinase assay)
# Outline: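 A FITC-labelled histone H3 peptide served as substrate, with compounds serially diluted to 1% DMSO final. Reactions were stopped with three volumes of IMAP progressive binding solution. After 0.5 h at room temperature, fluorescence polarization was read.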
# DU4475 cells [3] = test: Cell-based assay: anti-proliferative activity, Cell Counting Kit-8, 72 hours (DU4475); conditions: hydrochloride
# 22Rv1 cells [4] = test: Cell-based assay: anti-proliferative activity, Cell Counting Kit-8, 72 hours (22Rv1); conditions: Homo sapiens; remark: listed apart in the source
# [5] = Homo sapiens, DU-4475, DU4475 cells
# [6] = Homo sapiens, HT1197, 72 h, HT1197 cells (negative control, no MELK expression)
# [7] = 50 micro-M ATP, FITC-labeled histone H3 peptide substrate, IMAP fluorescence polarization
# [8] = HT1197 cells (negative control, no MELK expression), hydrochloride
# MELK, sequence (Q14680 whole entry, looked up): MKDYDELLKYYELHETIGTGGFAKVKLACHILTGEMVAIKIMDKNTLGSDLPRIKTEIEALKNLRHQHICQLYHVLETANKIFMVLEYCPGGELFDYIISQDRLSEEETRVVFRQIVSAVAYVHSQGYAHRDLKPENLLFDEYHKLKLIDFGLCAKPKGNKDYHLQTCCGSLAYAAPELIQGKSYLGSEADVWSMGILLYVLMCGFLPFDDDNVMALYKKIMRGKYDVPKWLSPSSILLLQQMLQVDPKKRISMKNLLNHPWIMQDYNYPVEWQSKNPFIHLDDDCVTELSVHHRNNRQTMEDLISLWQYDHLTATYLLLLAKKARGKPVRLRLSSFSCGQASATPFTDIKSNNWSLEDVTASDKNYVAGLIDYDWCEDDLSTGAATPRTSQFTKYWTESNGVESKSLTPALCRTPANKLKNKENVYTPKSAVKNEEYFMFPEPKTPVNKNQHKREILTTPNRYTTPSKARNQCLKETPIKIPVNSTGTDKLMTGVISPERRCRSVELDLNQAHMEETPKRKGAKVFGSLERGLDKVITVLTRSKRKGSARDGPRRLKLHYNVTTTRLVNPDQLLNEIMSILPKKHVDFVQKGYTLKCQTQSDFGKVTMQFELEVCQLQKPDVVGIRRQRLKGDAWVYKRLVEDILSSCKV
smiles,measurement,setting,value
"CN1CCN(C[C@H]2CC[C@H](Nc3c(C(=O)C4CC4)cnc4ccc(-c5cc(Cl)c(O)c(Cl)c5)cc34)CC2)CC1 [Example 619, cyclopropyl(6-(3,5-dichloro-4-hydroxyphenyl)-4-(1R,4R)-4-((4-methylpiperazin-1-yl)methyl)cyclohexylamino)quinolin-3-yl)methanone hydrochloride]",IC50,DU4475 cells [1]; hydrochloride,0.15 µM
same,IC50,"HT-1197 cells; HT1197 cells (negative control), hydrochloride",2.6 µM
same,IC50,A549 cells; hydrochloride,0.28 µM
same,IC50,"T47D cells; 72 hours, hydrochloride",0.32 µM
same,IC50,22Rv1 cells [2],0.51 µM
"O=C(c1cnc2ccc(-c3cc(F)c(O)c(Cl)c3)cc2c1Nc1ccc(CN2CCCC2)cc1)C1CC1 [Example 396, {6-(3-chloro-5-fluoro-4-hydroxyphenyl)-4-[4-(pyrrolidin-1-ylmethyl)phenylamino]quinolin-3-yl}(cyclopropyl)methanone]",IC50,DU4475; [5],0.084 µM
same,IC50,22Rv1,0.38 µM
same,IC50,HT-1197 cells; [6],1.6 µM
same,IC50,"A549 cells; Homo sapiens, A549, 72 h",0.087 µM
same,IC50,"T47D cells; Homo sapiens, T47D, 72 h",0.21 µM
same,IC50,MELK; [7],0.0088 µM
"CC(=O)c1cnc2ccc(-c3cc(Cl)c(O)c(Cl)c3)cc2c1Nc1ccc(CN2CCCC2)cc1 [Example 416, 1-(6-(3,5-dichloro-4-hydroxyphenyl)-4-(4-(pyrrolidin-1-ylmethyl)phenylamino)quinolin-3-yl)ethanone hydrobromide]",IC50,"DU4475; DU4475 cells, hydrobromide",0.053 µM
same,IC50,22Rv1,0.19 µM
same,IC50,"HT-1197 cells; HT1197 cells (negative control, no MELK expression), hydrobromide",6.1 µM
same,IC50,A549 cells; hydrobromide,0.11 µM
same,IC50,"T47D cells; 72 hours, hydrobromide",0.066 µM
same,IC50,"MELK; 50 micro-M ATP, FITC-labeled histone H3 peptide substrate, IMAP fluorescence polarization, hydrobromide",0.0032 µM
"CC(=O)c1cnc2ccc(-c3cc(Cl)c(O)c(Cl)c3)cc2c1N[C@H]1CC[C@H](CCN(C)C)CC1 [Example 740, 1-(6-(3,5-dichloro-4-hydroxyphenyl)-4-(trans-4-(2-(dimethylamino)ethyl)cyclohexylamino)quinolin-3-yl)ethanone hydrochloride]",IC50,HT-1197 cells; [8],3.5 µM
same,IC50,DU4475 cells [3],0.087 µM
same,IC50,"T47D cells; 72 hours, hydrochloride",0.099 µM
same,IC50,22Rv1 cells [4],0.17 µM
"CC(C)(N)c1ccc(Nc2c(C(=O)C3CC3)cnc3ccc(-c4cc(F)c(O)c(Cl)c4)cc23)cc1 [Example 604, {4-[4-(2-Aminopropan-2-yl)phenylamino]-6-(3-chloro-5-fluoro-4-hydroxyphenyl)quinolin-3-yl}(cyclopropyl)methanone]",IC50,"DU4475 cells [1]; Homo sapiens, DU-4475, 72 h",0.039 µM
same,IC50,"HT-1197 cells; Homo sapiens, HT1197, 72 h, HT1197 cells (negative control)",0.79 µM
same,IC50,"A549 cells; Homo sapiens, A549, 72 h",0.097 µM
same,IC50,"T47D cells; Homo sapiens, T47D, 72 h",0.094 µM
same,IC50,22Rv1 cells [2],0.087 µM
same,IC50,MELK,0.0028 µM
"O=C(c1cnc2ccc(-c3cc(F)c(O)c(Cl)c3)cc2c1Nc1ccc(N2CCNCC2)nc1)C1CC1 [Example 425, (6-(3-chloro-5-fluoro-4-hydroxyphenyl)-4-(6-(piperazin-1-yl)pyridin-3-ylamino)quinolin-3-yl)(cyclopropyl)methanone]",IC50,DU4475; [5],0.044 µM
same,IC50,22Rv1,0.082 µM
same,IC50,HT-1197 cells; [6],1.4 µM
same,IC50,"A549 cells; Homo sapiens, A549, 72 h",0.16 µM
same,IC50,"T47D cells; Homo sapiens, T47D, 72 h",0.042 µM
same,IC50,MELK; [7],0.0027 µM
"COc1cc(-c2ccc3ncc(C(=O)C4CC4)c(N[C@H]4CC[C@H](CN)CC4)c3c2)cc(Cl)c1O [Example 494, (4-(4-(aminomethyl)cyclohexylamino)-6-(3-chloro-4-hydroxy-5-methoxyphenyl)quinolin-3-yl)(cyclopropyl)methanone hydrochloride]",IC50,"DU4475; DU4475 cells, hydrochloride",0.055 µM
same,IC50,22Rv1,0.13 µM
same,IC50,HT-1197 cells; [8],0.48 µM
same,IC50,A549 cells; hydrochloride,0.085 µM
same,IC50,"T47D cells; 72 hours, hydrochloride",0.081 µM
same,IC50,MELK; hydrochloride,0.0016 µM
"CN(C)Cc1ccc(Nc2c(S(C)(=O)=O)cnc3ccc(-c4cc(Cl)c(O)c(Cl)c4)cc23)cc1 [Example 401, 2,6-dichloro-4-(4-(4-((dimethylamino)methyl)phenylamino)-3-(methylsulfonyl)quinolin-6-yl)phenol hydrochloride]",IC50,"DU4475; DU4475 cells, hydrochloride",0.11 µM
same,IC50,22Rv1,0.52 µM
same,IC50,HT-1197 cells; [6],2.2 µM
same,IC50,A549 cells; hydrochloride,0.44 µM
same,IC50,"T47D cells; 72 hours, hydrochloride",0.19 µM
same,IC50,"MELK; 50 micro-M ATP, FITC-labeled histone H3 peptide substrate, IMAP fluorescence polarization, hydrochloride",0.0055 µM
"CN[C@H]1CC[C@H](Nc2c(C(C)=O)cnc3ccc(-c4cc(Cl)c(O)c(OC)c4)cc23)CC1 [Example 543, 1-(6-(3-chloro-4-hydroxy-5-methoxyphenyl)-4-(1R,4R)-4-(methylamino)cyclohexylamino)quinolin-3-yl)ethanone dihydrochloride]",IC50,DU4475 cells [1]; dihydrochloride,0.051 µM
same,IC50,"HT-1197 cells; HT1197 cells (negative control), dihydrochloride",1.1 µM
same,IC50,A549 cells; dihydrochloride,0.076 µM
same,IC50,"T47D cells; 72 hours, dihydrochloride",0.047 µM
same,IC50,22Rv1 cells [2],0.14 µM
same,IC50,MELK; dihydrochloride,0.0018 µM
